target: T1, GST-JAK2(808-1132) (Homo sapiens, UniProt O60674); assay: JAK2 kinase assay (Caliper mobility shift, LabChip 3000); assay type: biochemical
T1 construct: GST-JAK2(808-1132); purchased Invitrogen (Carlsbad, USA) #4288
From the text: All four kinases of the JAK/TYK-kinase family were used as purified recombinant GST-fusion proteins, containing the active kinase domains. GST-JAK1 (866-1154), GST-JAK3(811-1124), and GST-TYK2(888-1187) were expressed and purified by affinity chromatography at the EPK biology unit. GST-JAK2(808-1132) was purchased from Invitrogen (Carlsbad, USA, #4288).
The kinase assays were based on the Caliper mobility shift assay using the LabChip 3000 systems. This technology is similar to capillary electrophoresis and uses charge driven separation of substrate and product in a microfluidic chip.
All kinase reactions were performed in 384 well microtiter plates in a total reaction volume of 18 μl. The assay plates were prepared with 0.1 μl per well of test compound in the appropriate test concentration, as described under the section “preparation of compound dilutions”. The reactions were started by combining 9 μl of substrate mix (consisting of peptide and ATP) with 9 μl of kinase dilution. The reactions were incubated for 60 minutes at 30° C. and stopped by adding 70 μl of stop buffer (100 mM Hepes, 5% DMSO, 0.1% Coating reagent, 10 mM EDTA, 0.015% Brij 35).
Fluorescently labeled synthetic peptides were used as substrates in all reactions. A peptide derived from the sequence of IRS-1(IRS-1 peptide, SEQ ID NO: 1 FITC-Ahx-KKSRGDYMTMQIG-NH2) was used for JAK1 and TYK2 and a peptide named JAK3tide SEQ ID NO: 2 (FITC-GGEEEEYFELVKKKK-NH2) for JAK2 and JAK3. Specific assay conditions are described in Table1:
The terminated reactions were transferred to the Caliper LabChip 3000 reader and the turnover of each reaction was measured by determining the substrate/product ratio.
Test compounds were dissolved in DMSO (10 mM) and transferred into 1.4 mL flat bottom or V-shaped Matrix tubes carrying a unique 2D matrix chip by individual compound hubs. The numbers of these chips were distinctively linked to the individual compound identification numbers. The stock solutions were stored at −20° C. if not used immediately. For the test procedure the vials were defrosted and identified by a scanner whereby a working sheet was generated that guided the subsequent working steps. Compound dilutions were made in 96 well plates. This format enabled the assay of maximally 40 individual test compounds at 8 concentrations (single points) including 4 reference compounds. The dilution protocol included the production of pre-dilution plates, master plates and assay plates:
Pre-dilution plates: 96 polypropylene well plates were used as pre-dilution plates. A total of 4 pre-dilution plates were prepared including 10 test compounds each on the plate positions A1-A10, one standard compound at A11 and one DMSO control at A12. All dilution steps were done on a HamiltonSTAR robot.
Master plates: 100 μL of individual compound dilutions including standard compound and controls of the 4 “pre-dilution plates” were transferred into a 384 “master plate” including the following concentrations 1,820, […], 182, 54.6, 18.2, 5.46, 1.82 and 0.546 μM, respectively in 90% of DMSO.
Assay plates: Identical assay plates were then prepared by pipetting 100 nL each of compound dilutions of the master plates into 384-well “assay plates”. In the following the compounds were mixed with 9 μL of assays components plus 9 μL enzyme corresponding to a 1:181 dilution steps enabling the final concentration of 10, 3.0, 1.0, 0.3, 0.1, 0.03, 0.01 and 0.003 μM, respectively. The preparation of the master plates were handled by the Matrix PlateMate Plus robot and replication of assay plates by the HummingBird robot.

T1 sequence (O60674 808-1132): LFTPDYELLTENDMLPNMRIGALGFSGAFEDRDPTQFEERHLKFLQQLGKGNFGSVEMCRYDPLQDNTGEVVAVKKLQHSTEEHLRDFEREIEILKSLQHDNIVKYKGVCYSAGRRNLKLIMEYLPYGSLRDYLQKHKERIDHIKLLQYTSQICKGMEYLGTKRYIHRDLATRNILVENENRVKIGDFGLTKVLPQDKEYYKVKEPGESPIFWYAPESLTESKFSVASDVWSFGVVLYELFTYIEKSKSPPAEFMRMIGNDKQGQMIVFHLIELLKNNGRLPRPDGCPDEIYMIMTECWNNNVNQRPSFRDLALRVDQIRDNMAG

Row | Structure (SMILES) | IC50
1 | CS(=O)(=O)c1ccc(-n2ccc3cnc(Nc4ccnc(N5CCNC6(CC6)C5)c4)nc32)cc1 [Example 275, [2-(4,7-Diaza-spiro[2.5]oct-7-yl)-pyridin-4-yl]-[7-(4-methanesulfonyl-phenyl)-7H-pyrrolo[2,3-d]pyrimidin-2-yl]-amine] | 7 nM
2 | CS(=O)(=O)c1ccc(-n2ccc3cnc(Nc4cccc(OCCN5CCOCC5)c4)nc32)cc1 [Example 35, [7-(4-Methanesulfonyl-phenyl)-7H-pyrrolo[2,3-d]pyrimidin-2-yl]-[3-(2-morpholin-4-yl-ethoxy)-phenyl]-amine] | 4.9 nM
3 | Cc1ccc(Nc2ncc3ccn(-c4cc(F)c(CN5CCOCC5)c(F)c4)c3n2)cc1CN1CCNC2(CC2)C1 [Example 373, [3-(4,7-Diaza-spiro[2.5]oct-7-ylmethyl)-4-methyl-phenyl]-[7-(3,5-difluoro-4-morpholin-4-ylmethyl-phenyl)-7H-pyrrolo[2,3-d]pyrimidin-2-yl]-amine] | 4.3 nM
4 | CS(=O)(=O)c1ccc(-n2ccc3cnc(Nc4ccc(F)cc4)nc32)cc1 [Example 55, (4-Fluoro-phenyl)-[7-(4-methanesulfonyl-phenyl)-7H-pyrrolo[2,3-d]pyrimidin-2-yl]-amine] | 20 nM
5 | N#Cc1ccc(Nc2ncc3ccn(-c4ccc(C(=O)N5CCOCC5)c(F)c4)c3n2)cn1 [Example 228, 5-{7-[3-Fluoro-4-(morpholine-4-carbonyl)-phenyl]-7H-pyrrolo[2,3-d]pyrimidin-2-ylamino}-pyridine-2-carbonitrile] | 56.5 nM
6 | CC(C)(C)OC(=O)N1CCC(n2cc(Nc3ncc4ccn(-c5cc(F)c(CN6CCOCC6)c(F)c5)c4n3)cn2)CC1 [Example 320, 4-{4-[7-(3,5-Difluoro-4-morpholin-4-ylmethyl-phenyl)-7H-pyrrolo[2,3-d]pyrimidin-2-ylamino]-pyrazol-1-yl}-piperidine-1-carboxylic acid tert-butyl ester] | 9.5 nM
7 | COc1ccc(Nc2ncc3ccn(-c4ccc(S(C)(=O)=O)cc4)c3n2)cc1O [Example 24, 5-[7-(4-Methanesulfonyl-phenyl)-7H-pyrrolo[2,3-d]pyrimidin-2-ylamino]-2-methoxy-phenol] | 3.5 nM
8 | Fc1cc(-n2ccc3cnc(Nc4ccncc4)nc32)cc(F)c1CN1CCOCC1 [Example 211, [7-(3,5-Difluoro-4-morpholin-4-ylmethyl-phenyl)-7H-pyrrolo[2,3-d]pyrimidin-2-yl]-pyridin-4-yl-amine] | 5.9 nM

Other lines, results leading:

Row | IC50 | Structure (SMILES)
9 | 11 nM | Cc1ccc(Nc2ncc3ccn(-c4ccc(C(=O)N5CCOCC5)c(F)c4)c3n2)cc1CN1C[C@H](C)NC[C@H]1C (racemic) [Example 379, (4-{2-[3-((2R,5S)-2,5-Dimethyl-piperazin-1-ylmethyl)-4-methyl-phenylamino]-pyrrolo[2,3-d]pyrimidin-7-yl}-2-fluoro-phenyl)-morpholin-4-yl-methanone]
10 | 14 nM | O=C(c1ccc(-n2ccc3cnc(Nc4ccc(CN5CCN(C6CC6)CC5)cc4)nc32)cc1F)N1CCOCC1 [Example 330, (4-{2-[4-(4-Cyclopropyl-piperazin-1-ylmethyl)-phenylamino]-pyrrolo[2,3-d]pyrimidin-7-yl}-2-fluoro-phenyl)-morpholin-4-yl-methanone]
11 | 82 nM | CS(=O)(=O)c1ccc(-n2ccc3cnc(Nc4ccc(N5CCNCC5)nc4)nc32)cc1 [Example 282, [7-(4-Methanesulfonyl-phenyl)-7H-pyrrolo[2,3-d]pyrimidin-2-yl]-(6-piperazin-1-yl-pyridin-3-yl)-amine]
12 | ≤ 3 nM | Cc1cc(Nc2ncc3ccn(-c4cc(F)c(CN5CCOCC5)c(F)c4)c3n2)ccc1CN1C[C@@H](C)N[C@@H](C)C1 [Example 461, [7-(3,5-Difluoro-4-morpholin-4-ylmethyl-phenyl)-7H-pyrrolo[2,3-d]pyrimidin-2-yl]-[4-(cis-3,5-dimethyl-piperazin-1-ylmethyl)-3-methyl-phenyl]-amine]
